Measured values taken from ChEMBL document CHEMBL1201862, “PubChem BioAssay data set” (2004).
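Exposure lasted 48 hours, with cells grown in 96-well plates and compounds tested at five concentrations. Abbreviation: GI50, concentration required for 50% inhibition of growth.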 Activity calls are given as the source filed them. Rule as the data show it: active = GI50 up to about 1.1 µM and inactive = higher.

How the values were obtained:
Assay in all cases: NCI-60 cell line screen, 48 h
ACHN = tested on: ACHN
BT-549 = tested on: BT-549
CAKI-1 = tested on: CAKI-1
HOP-92 = tested on: HOP-92
HT-29 = tested on: HT-29
Hs-578T = tested on: Hs-578T
IGROV-1 = tested on: IGROV-1
K562 = tested on: K562
KM12 = tested on: KM12
NCI-H460 = tested on: NCI-H460
OVCAR-5 = tested on: OVCAR-5
SF-295 = tested on: SF-295
SK-MEL-28 = tested on: SK-MEL-28
SK-MEL-2 = tested on: SK-MEL-2
SN12C = tested on: SN12C
SR = tested on: SR
TK-10 = tested on: TK-10
U-251 = tested on: U-251
UACC-62 = tested on: UACC-62

| Compound | GI50 (ACHN) | GI50 (BT-549) | GI50 (CAKI-1) | GI50 (HOP-92) | GI50 (HT-29) | GI50 (Hs-578T) | GI50 (IGROV-1) | GI50 (K562) | GI50 (KM12) | GI50 (NCI-H460) | GI50 (OVCAR-5) | GI50 (SF-295) | GI50 (SK-MEL-28) | GI50 (SK-MEL-2) | GI50 (SN12C) | GI50 (SR) | GI50 (TK-10) | GI50 (U-251) | GI50 (UACC-62) |
| --- | --- | --- | --- | --- | --- | --- | --- | --- | --- | --- | --- | --- | --- | --- | --- | --- | --- | --- | --- |
| CCCCC1(N=[N+]=[N-])C(=O)C2C=CC=C3c4ccccc4N(C1=O)C32 (stereo not drawn) | 17.5 µM (inactive) | 24.5 µM (inactive) | 19.8 µM (inactive) | > 10 µM (inactive) | 14.1 µM (inactive) | 12.3 µM (inactive) | 11.3 µM (inactive) | 17.3 µM (inactive) | 24.8 µM (inactive) | 17.2 µM (inactive) | 19.8 µM (inactive) | 24.7 µM (inactive) | 78.2 µM (inactive) | 11 µM (inactive) | 30.1 µM (inactive) | > 10 µM (inactive) | 16.4 µM (inactive) | 18.7 µM (inactive) | 23.1 µM (inactive) |
| O=c1c2ccccc2[nH]n1Cc1ccccc1 | > 100 µM (inactive) | > 100 µM (inactive) | > 100 µM (inactive) | > 100 µM (inactive) | > 100 µM (inactive) | > 100 µM (inactive) | > 100 µM (inactive) | > 100 µM (inactive) | > 100 µM (inactive) | > 100 µM (inactive) | > 100 µM (inactive) | > 100 µM (inactive) | > 100 µM (inactive) | > 100 µM (inactive) | > 100 µM (inactive) | > 100 µM (inactive) | > 100 µM (inactive) | > 100 µM (inactive) | > 100 µM (inactive) |
| COc1ccc2oc(=O)c(-c3nc4ccccc4s3)cc2c1 | 5.55 µM (inactive) | > 63.7 µM (inactive) | 18.5 µM (inactive) | 19.7 µM (inactive) | 13.6 µM (inactive) | 23.2 µM (inactive) | 12.8 µM (inactive) | > 100 µM (inactive) | > 55.3 µM (inactive) | 16.6 µM (inactive) | 23 µM (inactive) | 21.5 µM (inactive) | > 59.3 µM (inactive) | > 100 µM (inactive) | 33.4 µM (inactive) | 22 µM (inactive) | 32.2 µM (inactive) | 15 µM (inactive) | 43.5 µM (inactive) |
| O=C(OCc1ccccc1)N1CCNCCNCC1 | > 100 µM (inactive) | > 100 µM (inactive) | > 100 µM (inactive) | > 100 µM (inactive) | > 100 µM (inactive) | > 100 µM (inactive) | > 100 µM (inactive) | > 100 µM (inactive) | > 100 µM (inactive) | > 100 µM (inactive) | > 100 µM (inactive) | > 100 µM (inactive) | > 100 µM (inactive) | > 100 µM (inactive) | > 100 µM (inactive) | > 100 µM (inactive) | > 100 µM (inactive) | > 100 µM (inactive) | > 100 µM (inactive) |
| O=C(CSc1nccc(=O)[nH]1)c1ccccc1 | > 100 µM (inactive) | > 100 µM (inactive) | > 100 µM (inactive) | > 100 µM (inactive) | > 100 µM (inactive) | 16.1 µM (inactive) | > 100 µM (inactive) | > 100 µM (inactive) | > 100 µM (inactive) | 80.5 µM (inactive) | > 100 µM (inactive) | 60.4 µM (inactive) | > 100 µM (inactive) | > 100 µM (inactive) | 49.9 µM (inactive) | > 100 µM (inactive) | > 100 µM (inactive) | > 100 µM (inactive) | 46.2 µM (inactive) |
| CC(=O)NC1C(OCc2ccccc2)OC(CO)C(O)C1OCC(=O)N[C@@H](C)C(=O)N[C@H](CCC(=O)NCCCNc1ccc([N+](=O)[O-])c2[nH]c3ccccc3c(=O)c12)C(N)=O (stereo partly drawn) | 50.8 µM (inactive) | 38.4 µM (inactive) | > 100 µM (inactive) | > 100 µM (inactive) | 36.8 µM (inactive) | 26.2 µM (inactive) | 23.4 µM (inactive) | > 100 µM (inactive) | 93.5 µM (inactive) | 46.1 µM (inactive) | > 100 µM (inactive) | 56.6 µM (inactive) | > 100 µM (inactive) | > 100 µM (inactive) | > 100 µM (inactive) | > 100 µM (inactive) | 41.7 µM (inactive) | 48.3 µM (inactive) | 36.2 µM (inactive) |
| CCC(C)C1NC(=O)C(NC(=O)C(CC(C)C)N(C)C(=O)[C@@H]2C=CCN2C(=O)[C@H](C)O)C(C)OC(=O)[C@H](Cc2ccc(OC)cc2)N(C)C(=O)[C@@H]2CCCN2C(=O)[C@H](CC(C)C)NC(=O)C(C)C(=O)[C@H](C(C)C)OC(=O)CC1O (stereo partly drawn) | 0.00402 µM (active) | 0.00365 µM (active) | 0.00984 µM (active) | 0.00643 µM (active) | 0.00252 µM (active) | < 0.01 µM (active) | 0.00256 µM (active) | 0.0021 µM (active) | < 0.01 µM (active) | 0.00215 µM (active) | 0.0137 µM (active) | 0.00248 µM (active) | 0.00138 µM (active) | < 0.01 µM (active) | 0.00279 µM (active) | 0.000216 µM (active) | 0.0175 µM (active) | 0.00131 µM (active) | 0.00119 µM (active) |
